Source: patent US20240285785A1, “TARGETING SORTILIN” (priority 2022, published 2024)
One block for each molecule: values may come before it.

Experiments:
[1] = Murine hematotoxicity assay; format: in vivo, BALB/c mice; conditions: 3 mg/kg i.v. QW×4, compared to vehicle or MMAE treatment
Method: Murine hematotoxicity experiments were conducted at Charles River Laboratories and the care and use of animals was conducted in accordance with the regulations of the Association for Assessment and Accreditation of Laboratory Animal Care (AAALAC). Wild type BALB/c, female, 7-8 weeks, weighing approximately 18-22 g were randomized and dosed intravenously with control or test articles at a QW×4 schedule. Dosing volume was adjusted based on body weight and was administered at 10 mL/Kg. PDCs were dissolved in 25 mM Histidine 10% sucrose pH 7 and 3 mg/kg was administered. Free MMAE payload was also tested, and similarly dissolved in 25 mM Histidine 10% sucrose pH 7 and administered to the mice at a dose of […] by i.v. injection at a QW×4 schedule. 3 days following each dose, 150 μL of whole blood was collected via submandibular method and placed in K2 EDTA tubes stored on ice. Blood neutrophil counts were performed on the day of collection by IDEXX labs. Body weights were recorded twice a week until study endpoint.
As outlined in the material and methods of Example 1, wild type BALB/c, female, 7-8 weeks, weighing approximately 18-22 g were randomized and dosed intravenously with control or test articles at a QW×4 schedule. Dosing volume was adjusted based on body weight and was administered at 10 ml/Kg. […] Free MMAE payload was also tested, and similarly dissolved in 25 mM Histidine 10% sucrose pH 7 and administered to the mice at a dose of […] by i.v. injection at a QW×4 schedule. 3 days following each dose, 150 μL of whole blood was collected via submandibular method and placed in K2 EDTA tubes stored on ice. Blood neutrophil counts were performed on the day of collection by IDEXX labs. Body weights were recorded twice a week until study endpoint.

MDA-MB-231 tumor cells = test: MDA-MB-231 murine xenograft efficacy model; format: in vivo, BALB/c Nude mice
Method: Murine xenograft experiments were conducted at WuXi AppTec and/or Charles River Laboratories and the care and use of animals was conducted in accordance with the regulations of the Association for Assessment and Accreditation of Laboratory Animal Care (AAALAC). MDA-MB-231 tumor cells (ATCC, Manassas, VA, cat #HTB-26) were grown and maintained in L15 medium supplemented with 10% heat inactivated fetal bovine serum, 1% Antibiotic-Antimycotic, and L-glutamine (2 mM) at 37° C. in an atmosphere in 5% CO2, 95% air. BALB/c Nude, female, 6-8 weeks, weighing approximately 18-22 g were purchased from Vital River Laboratory Animal Technology Co., LTD. Mice were inoculated subcutaneously at the right flank with MDA-MB-231 tumor cells (e.g., triple negative breast cancer cells) (10×10^6) in 0.2 mL of PBS with Matrigel (1:1) for tumor development. Animals were randomized and treatment was started when the average tumor volume reached approximately 150-200 mm^3 for the efficacy study. Dosing volume was adjusted based on body weight and was administered at 10 ml/Kg. […] Free MMAE payload was also tested, and similarly dissolved in 25 mM Histidine 10% sucrose pH 7 and one or more of the following doses, 0.6, 0.06 mg/kg, were administered to the mice i.v. at a QW×4 schedule. Tumor sizes were measured twice weekly in two dimensions using a caliper, and the volume in mm^3 calculated using the formula: V=0.5 a×b^2, where a and b are the long and short diameters of the tumor, respectively. TGI was calculated for each group using the formula: TGI (%)=[1−(Ti−T0)/(Vi−V0)]×100; where Ti is the average tumor volume of a treatment group on a given day, T0 is the average tumor volume of the treatment group on the first day of treatment, Vi is the average tumor volume of the vehicle control group on the same day with Ti, and V0 is the average tumor volume of the vehicle group on the first day of treatment.

SORT1 = biological target: T1, SORT1 (Homo sapiens, UniProt Q99523); test: Direct binding in fluorescence polarization (FP), FAM-labeled peptides
T1 construct: Human SORT1 (78-755)-His (Acrobiosystems); His (C); purchased Acrobiosystems SON—H52H5
T1 sequence (Q99523 78-755): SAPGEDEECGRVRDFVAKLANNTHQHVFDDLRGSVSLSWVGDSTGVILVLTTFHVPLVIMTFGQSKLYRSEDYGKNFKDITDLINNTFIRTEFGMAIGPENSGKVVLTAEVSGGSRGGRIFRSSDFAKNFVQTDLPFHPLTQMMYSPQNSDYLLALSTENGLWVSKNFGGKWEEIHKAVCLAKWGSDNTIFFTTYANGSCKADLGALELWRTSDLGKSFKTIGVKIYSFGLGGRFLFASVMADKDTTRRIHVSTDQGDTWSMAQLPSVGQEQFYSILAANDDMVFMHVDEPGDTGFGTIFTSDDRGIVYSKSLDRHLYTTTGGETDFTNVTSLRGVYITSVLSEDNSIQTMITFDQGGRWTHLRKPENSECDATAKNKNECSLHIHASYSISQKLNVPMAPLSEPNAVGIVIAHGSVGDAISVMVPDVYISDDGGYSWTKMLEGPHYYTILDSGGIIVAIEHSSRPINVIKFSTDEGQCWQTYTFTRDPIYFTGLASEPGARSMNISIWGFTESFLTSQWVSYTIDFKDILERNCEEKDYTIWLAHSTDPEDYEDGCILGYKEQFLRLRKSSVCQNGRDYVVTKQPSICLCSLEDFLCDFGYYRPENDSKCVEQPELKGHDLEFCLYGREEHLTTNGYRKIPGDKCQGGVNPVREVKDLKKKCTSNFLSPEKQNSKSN
Method: Peptides were dissolved into stock solutions in water, then brought up to final concentrations in 1×PBS, pH 7.4 and tested in DLS and CD (methods above) to ensure the peptides were soluble. Peptide concentrations were determined by quantifying the dye using the nanodrop and dye specific extinction coefficient at a specific wavelength. For FAM labeled dyes, the extinction coefficient 83000 cm^−1 M^−1 was used.
FAM labeled peptides were diluted to 1 μM in FP buffer (1×PBS, pH 7.4, 0.1% Tween-20) and serially diluted two-fold for a 12-point series to determine concentration at which the fluorescence intensity was 10,000 RFU and the polarization of the peptide was consistent. A 10× working solution would thus be 10× the concentration of FAM labeled peptide that satisfied the above criteria. […]
A 10× working solution of FAM-labeled peptides was prepared in the FP buffer (1×PBS, pH 7.4, 0.1% Tween-20). […] The 384-well plate was then centrifuged 1 min, 4000 rpm and fluorescence and polarization of dye measured on a Biotek Synergy Neo2 plate reader using the following settings (Excitation 485/20, Emission 528/20, Top read, Gain: 75, Light source: Xenon Flash, Lamp Energy: Low, Standard Dynamic range, Read speed: Normal, Delay: 0 msec, Measurements/Data Point: 10, Read Height: 9 mm). […]

[2] = Dynamic light scattering (DLS) solubility/aggregation; format: physicochemical; conditions: working concentrations (250 nM, PBS, pH 7.4)
Method: Samples were spun down on a bench top centrifuge, 15 minutes, 15,000 rpm, room temperature, to pellet any aggregated peptide/dust before taking a measurement. Visual inspection of the tubes was used to identify if any large pellets were formed, which is indicative of large aggregates. […] The plate was then transferred and read on the DLS instrument (Wyatt Technology DynaPro Plate Reader III) at 25° C.

[3] = Maximum tolerated dose (MTD) study; format: in vivo, BALB/c Nude mice; conditions: 10 mg/kg single i.v. dose
Method: BALB/c Nude mice, female, 6-8 weeks, weighing approximately 18-22 g were purchased from the Shanghai SLAC Laboratory Animal Co., LTD. MTD studies were conducted at WuXi AppTec and the care and use of animals was conducted in accordance with the regulations of the Association for Assessment and Accreditation of Laboratory Animal Care (AAALAC). Two MTD studies were performed (a) a low dose study with doses ranging from 0.1, 0.5, 1 and 3 mg/kg and (b) a high dose study with doses ranging from 3, 5, 10 mg/kg. Dosing volume was determined based on body weight (10 ul/g) and PDCs were dissolved in 25 mM Histidine 10% sucrose pH 7 and administered i.v. at a single dose at day 0. The treatment and observation were conducted up to 7 days and MTD was defined by ≥20% body weight loss. Body weights were measured daily, death and observed clinical signs were recorded.
Doses of 3, 5, and 10 mg/kg were administered. MTD was defined by ≥20% body weight loss and body weight measured daily.

SMILES: CCCC[C@@H]1NC(=O)[C@H](CCCNC(=N)N)NC(=O)[C@H](CCCCNC(=O)CN(C)C(=O)CN(C)C(=O)CN(C)C(=O)CN(C)C(=O)CCNC(=O)CCCC(=O)N[C@H](C(=O)N[C@@H](CCCNC(N)=O)C(=O)Nc2ccc(COC(=O)N(C)[C@H](C(=O)N[C@H](C(=O)N(C)[C@@H]([C@@H](C)CC)[C@@H](CC(=O)N3CCC[C@H]3[C@H](OC)[C@@H](C)C(=O)N[C@H](C)[C@@H](O)c3ccccc3)OC)C(C)C)C(C)C)cc2)C(C)C)NC(=O)[C@H](CC(N)=O)NC(=O)[C@H](CCC(=O)O)NC(=O)[C@@H](NC(=O)[C@H](Cc2c[nH]c3ccccc23)NC(=O)[C@H](CCCNC(=N)N)NC(C)=O)CSSC[C@@H](C(=O)N[C@@H](CCCNC(=N)N)C(=O)N[C@@H](CCC(N)=O)C(=O)N[C@H](C(=O)N[C@@H](CC(C)(C)C)C(=O)O)C(C)(C)C)NC(=O)[C@H]([C@@H](C)O)NC(=O)[C@H](Cc2ccccc2)NC1=O [Arb_cyclic_G23-PDC]
blood neutrophil counts [1]: reduced neutrophil counts
tumor growth inhibited relative to vehicle (MDA-MB-231 tumor cells; 3 mg/kg i.v. QW×4, day 22 (Example 8)): 68%
body weight loss (MDA-MB-231 tumor cells; Example 8, PDC 3 mg/kg, free MMAE 0.6 mg/kg, i.v. QW×4): body weight loss tracked each other

SMILES: CC[C@H](C)[C@@H]([C@@H](CC(=O)N1CCC[C@H]1[C@H](OC)[C@@H](C)C(=O)N[C@H](C)[C@@H](O)c1ccccc1)OC)N(C)C(=O)[C@@H](NC(=O)[C@H](C(C)C)N(C)C(=O)OCc1ccc(NC(=O)[C@H](CCCNC(N)=O)NC(=O)[C@@H](NC(=O)CCCC(=O)NCCC(=O)N(C)CC(=O)N(C)CC(=O)N(C)CC(=O)N(C)CC(=O)N[C@@H](CC(=O)O)C(=O)N[C@@H](CC(=O)O)C(=O)N2CCC[C@H]2C(=O)N[C@@H](CCCNC(=N)N)C(=O)N[C@@H](C)C(=O)N2CCC[C@H]2C(=O)N[C@@H](Cc2c[nH]c3ccccc23)C(=O)N2CCC[C@H]2C(=O)N[C@@H](C)C(=O)N[C@@H](CC(C)C)C(=O)N[C@@H](CCC(N)=O)C(=O)N[C@@H](CCCNC(=N)N)C(=O)N[C@@H](CC(C)C)C(=O)N[C@@H](C)C(=O)N[C@@H](CC(C)C)C(=O)N[C@@H](CCCNC(=N)N)C(=O)N[C@@H](CC(C)C)C(=O)O)C(C)C)cc1)C(C)C [PRGN_RL_PDC]
toxicity [3]: mild toxicity

Next, values leading:

poorer affinity than the WT sequence (PRGN_WT) (SORT1; binding to SORT1-Ag): ~7 ×
solubility (DLS) [2]: good solubility
SMILES: CC(C)C[C@H](NC(=O)[C@H](CCCNC(=N)N)NC(=O)[C@H](CC(C)C)NC(=O)[C@H](C)NC(=O)[C@H](CC(C)C)NC(=O)[C@H](CCCNC(=N)N)NC(=O)[C@H](CCC(N)=O)NC(=O)[C@H](CC(C)C)NC(=O)[C@H](C)NC(=O)[C@@H]1CCCN1C(=O)[C@H](Cc1c[nH]c2ccccc12)NC(=O)[C@@H]1CCCN1C(=O)[C@H](C)NC(=O)[C@H](CCCNC(=N)N)NC(=O)[C@@H]1CCCN1C(=O)[C@H](CC(=O)O)NC(=O)[C@@H](N)CC(=O)O)C(=O)O [PRGN_RL]

solubility (DLS) [2]: good solubility
SMILES: CC(C)C[C@H](NC(=O)[C@H](CC(C)C)NC(=O)[C@H](CCC(N)=O)NC(=O)[C@H](CCCNC(=N)N)NC(=O)[C@H](CC(C)C)NC(=O)[C@H](C)NC(=O)[C@@H]1CCCN1C(=O)[C@H](CC(=O)O)NC(=O)[C@H](CCCNC(=N)N)NC(=O)[C@H](CC(C)C)NC(=O)[C@@H]1CCCN1C(=O)[C@H](C)NC(=O)[C@H](CC(=O)O)NC(=O)[C@H](Cc1c[nH]c2ccccc12)NC(=O)[C@H](CCCNC(=N)N)NC(=O)[C@@H]1CCCN1C(=O)[C@H](C)N)C(=O)O [PRGN_WT]

affinity in FP (direct binding to SORT1-Ag) (SORT1; direct titration, FAM-labeled peptide): no binding
solubility (DLS) [2]: good solubility
SMILES: CC(C)C[C@H](NC(=O)[C@H](CC(C)C)NC(=O)[C@H](CC(=O)O)NC(=O)[C@H](CCCNC(=N)N)NC(=O)[C@@H]1CCCN1C(=O)[C@H](CC(C)C)NC(=O)[C@H](CCCNC(=N)N)NC(=O)[C@H](C)NC(=O)[C@H](CC(C)C)NC(=O)[C@H](CCCNC(=N)N)NC(=O)[C@@H](N)CCC(N)=O)C(=O)N[C@@H](C)C(=O)N[C@@H](Cc1c[nH]c2ccccc12)C(=O)N1CCC[C@H]1C(=O)N1CCC[C@H]1C(=O)N[C@@H](C)C(=O)N[C@@H](CC(=O)O)C(=O)O [PRGN_scr, reference compound]
